The values that follow come from PubChem BioAssay (NCI).

Among the test systems are DLD-1 colon; LXFL 529 NSCLC; DMS 273 small cell lung; HOP-18 NSCLC; M19-MEL melanoma; SNB-78 CNS; MDA-N; HS 578T breast.
Common to all, as to assay: DTP human tumour cell line panel, 48 h

Values joined by “and” are separate entries in the source; they are usually repeats but may differ in a detail not shown here. Equal entries are not always repeated.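 Compound exposure: 48 hours, 5 concentrations, 96-well plates. Abbreviation: GI50, concentration required for 50% inhibition of growth. TGI: concentration producing complete growth inhibition.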 *1 amine or outer side, *2 acyl side, *3 side chain or, on linkers, in order; H or OH if unused. Where a SMILES comes first, the peptide text is derived from it. Bridges are numbered along the chain shown (N, C = ends). [ ]: non-standard residue; d: D form. The star is where a group is joined. Phe(3,5-F2) = N[C@@H](Cc1cc(F)cc(F)c1)C(=O)O; Pro(4R-Me) = C[C@H]1CN[C@H](C(=O)O)C1; aThr = C[C@H](O)[C@H](N)C(=O)O; Pip = O=C(O)[C@@H]1CCCCN1; X10 = Fc1cc(C2CC2)ccc1N*; CO = O=C([*:1])[*:2]

By TGI is commonly meant the concentration at which net growth stops. As to `CCCC1C(=O)CCc2c(OC)ccc(OC)c21` (stereo not drawn), the TGI in the assay with DLD-1 colon, in the assay on LXFL 529 NSCLC, in the assay with DMS 273 small cell lung, with HOP-18 NSCLC, in the assay on M19-MEL melanoma and in the assay with SNB-78 CNS was above 100 µM each time.

Regarding `CN1CCN(C2=NCCO2)CC1`, the TGI in the assay on MDA-N is above 100 µM.

As a reminder, the GI50 is the concentration at which growth is held to half of that of the control. Turning to `CC1CCc2nc[nH]c(=O)c21` (stereo not drawn), in the assay on HS 578T breast, the GI50 is above 100 µM and the TGI was above 100 µM.

For `Cc1ccnc2c1ccc1c(C)ccnc12`, in the assay on HS 578T breast, the GI50 is 3.95 µM and the TGI is above 100 µM.

For the molecule `C[C@@H](Oc1cc(-n2cnc3ccc(CN4CCN(C)CC4)cc32)sc1C(N)=O)c1ccccc1C(F)(F)F`, in the assay with HS 578T breast, the GI50 was 0.0853 µM and 0.035 µM; the TGI was 2.53 µM.

In the case of `O=C1CC(NC(=O)C(F)(F)F)c2c(Br)sc(N3CCNCC3)c21` (stereo not drawn), the TGI in the assay on MDA-N and in the assay with HS 578T breast was above 100 µM in each case.

Turning to `O=C(Nc1ccc(-n2ccc3c(NC(=O)c4ccccc4)nccc32)cc1)c1ccc(Cl)c(C(F)(F)F)c1`, in the assay on HS 578T breast, the GI50 is 4.88 µM and the TGI came to 20 µM.

As for `COc1cccc(-c2cc(-c3cccc(NS(C)(=O)=O)c3)nc(N)c2C#N)c1O`, in the assay on HS 578T breast, the GI50 is 0.0901 µM and the total growth inhibition concentration (TGI) worked out at 4.42 µM.

Take `COc1ccc(CC2c3cc4c(cc3CCN2C)OCO4)c(C=O)c1OC` (stereo not drawn): the concentration for total growth inhibition (TGI) in the assay with MDA-N and in the assay with HS 578T breast was above 100 µM in each case.

For `CCOC1Oc2ccccc2C(=O)/C1=C/Nc1ccc(C(C)=O)cc1` (stereo not drawn), in the assay with HS 578T breast, the GI50 was 17.9 µM and the concentration for total growth inhibition (TGI) is 52 µM.

Turning to `CN(C)c1ccc(/C=C\C2=[N+](C)c3ccccc3C2(C)C)cc1`, in the assay on HS 578T breast, the concentration for 50% growth inhibition (GI50) was 0.305 µM and the TGI came to 8.68 µM.

For `O=C(Nc1ccc(F)cc1)Nc1ccc(Cl)c([N+](=O)[O-])c1`, in the assay on HS 578T breast, the GI50 is 4.02 µM and the TGI was found to be 24.2 µM.

`CN(C)N=Nc1ccc(C(N)=O)cc1`: the total growth inhibition concentration (TGI) with DLD-1 colon, with LXFL 529 NSCLC, in the assay with DMS 273 small cell lung, with HOP-18 NSCLC, in the assay on M19-MEL melanoma and in the assay with SNB-78 CNS was above 100 µM each time.

Regarding `Nc1ccccc1C#C/C=C\C#Cc1ccccc1OC(F)(F)F`, in the assay with HS 578T breast, the GI50 is 4.08 µM and the TGI stood at 22 µM.

Consider `CNS(=O)(=O)NNS(=O)(=O)c1ccccc1`, for which the TGI in the assay with DLD-1 colon, with LXFL 529 NSCLC, with DMS 273 small cell lung, in the assay on HOP-18 NSCLC and in the assay with M19-MEL melanoma was above 100 µM throughout.

Turning to `CC(=O)OC1OC([C@@H]2c3cccc(O)c3C(=O)c3c(O)cc(C)cc32)C(O)C(O)C1O` (stereo partly drawn), in the assay on HS 578T breast, the GI50 was below 0.0103 µM.

For the molecule `Cc1cc(-c2nc(C(=O)Nc3cc4oc(N5CCOCC5)nc4nc3N3CC[C@@H](O)C3)co2)ccn1`, in the assay with HS 578T breast, the GI50 is 22.2 µM and the TGI is above 100 µM.

With `OCCN(CCO)c1ncnc2c1ncn2Cc1ccc(CCl)cc1`, in the assay on HS 578T breast, the GI50 is 16 µM and the TGI stood at 36.9 µM.

With `Cc1ccc(NC(=O)Nc2ccc(-c3cccnc3)cc2N2CCC(CO)CC2)cc1`, in the assay on HS 578T breast, the GI50 was 1.7 µM and the TGI came out at 6.4 µM.

For `O=[N+]([O-])c1cccc(-c2csc(NNC3=NC/C(=C/c4ccc5c(c4)OCO5)S3)n2)c1`, the TGI in the assay on MDA-N was above 100 µM; in the assay on HS 578T breast, 69.7 µM.

Turning to `COC(=O)C1(C(C)C)CCc2c(OC)ccc(OC)c2C1=O` (stereo not drawn), the TGI in the assay with DLD-1 colon, with LXFL 529 NSCLC, with HOP-18 NSCLC, in the assay on M19-MEL melanoma and in the assay with SNB-78 CNS was above 100 µM throughout.

`CCOC(=O)C(C)(C)Oc1ccc2c(-c3ccccc3)cc(=O)oc2c1`: the TGI in the assay with DLD-1 colon is above 100 µM; in the assay on LXFL 529 NSCLC it was 94.8 µM; with DMS 273 small cell lung, above 100 µM; with M19-MEL melanoma, 98 µM.

With `CO/C(=N\N=C\c1ccc(C(F)(F)F)cc1)c1ccncc1`, the TGI with MDA-N was above 10 µM.

Take `C[C@@H]1C[C@H]2C(=O)O[C@@H](C)[C@H](NC(=O)[C@H](Cc3cc(F)cc(F)c3)NC(=O)Nc3ccc(C4CC4)cc3F)C(=O)N3CCC[C@H]3C(=O)N3CCCC[C@H]3C(=O)N[C@@H](C)C(=O)N2C1` ({X10-CO}-[Phe(3,5-F2)][aThr]P[Pip]A[Pro(4R-Me)]; ester 2-C): in the assay on HS 578T breast, the GI50 is 0.0409 µM and the total growth inhibition concentration (TGI) turned out to be 3.94 µM.

As for `COc1cc(/C=N\NC(=O)CN2CCN(c3cc4c(cc3F)c(=O)c(C(=O)N/N=C/c3cc(OC)c(OC)c(OC)c3)cn4C3CC3)CC2)cc(OC)c1OC`, the GI50 in the assay on HS 578T breast was 0.308 µM.

Regarding `COc1cnc2c(c1)C(=O)c1c-2n(CCCN2CCOCC2)c(=O)c2cc(F)ccc12`, in the assay on HS 578T breast, the GI50 is 1.5 µM and the TGI amounted to 23.3 µM.

Consider `COc1cc2c(c(OC)c1OC)-c1ccc(NNC(N)=S)c(=O)cc1[C@@H](NC(C)=O)CC2`, for which the TGI in the assay with HS 578T breast was above 100 µM.

For `Cc1nc2sccn2c1-c1csc(Nc2ccccc2Cl)n1`, in the assay with HS 578T breast, the GI50 is 6.92 µM and the TGI is above 100 µM.

In the case of `CN(C)C(=S)N=C(Nc1ccccc1)Nc1ccccc1`, the TGI in the assay with DMS 273 small cell lung, in the assay with M19-MEL melanoma and with SNB-78 CNS was above 100 µM throughout.

With `NC1=NCCC1(c1ccccc1)c1ccccn1` (stereo not drawn), the TGI with LXFL 529 NSCLC, in the assay on DMS 273 small cell lung, in the assay on HOP-18 NSCLC, in the assay with M19-MEL melanoma and in the assay with SNB-78 CNS was above 100 µM in each case.

As for `NS(=O)(=O)OC[C@@H]1C[C@@H](n2ccc3c(NC4CCc5ccccc54)ncnc32)C[C@@H]1O` (stereo partly drawn), in the assay on HS 578T breast, the GI50 was 16.8 µM and the TGI was determined as 61.3 µM.

For `O=C(CCNC12CC3CC(CC(C3)C1)C2)c1ccccc1`, the concentration for total growth inhibition (TGI) in the assay on MDA-N is 30.5 µM.

On to `CCC(=O)[C@H](C)[C@@H](OC(=O)[C@H](C)CC)[C@H](C)[C@H]1OC(CC)=C(C)C(=O)[C@@H]1C`, for which, in the assay on HS 578T breast, the GI50 was 30.3 µM and the total growth inhibition concentration (TGI) came out at 89.3 µM.

As to `Nc1c(C(=O)c2cccc(CCS(N)(=O)=O)c2)cnn1-c1ccc(F)cc1`, in the assay with HS 578T breast, the GI50 is above 25 µM and the TGI was above 25 µM.

For the molecule `OCC1=CC(NC2CC(CO)C(O)C(O)C2O)C(O)C(O)C1O` (stereo not drawn), the TGI in the assay with DLD-1 colon, with DMS 273 small cell lung, with HOP-18 NSCLC and in the assay with M19-MEL melanoma was above 100 µM throughout.

As for `CCOC(=O)Cn1c(C(F)(F)F)nc2nc(Cl)c(Cl)nc21`, the TGI is above 100 µM in the assay with MDA-N and 87.2 µM in the assay with HS 578T breast.
